# Data from patent US4328202A, “Ionic 5-C-substituted 2,4,6-triiodoisophthalic acid derivatives” (Schering, A.G., priority 1980, dated 1982).
# Columns and labels:
# Rat [1] = assay: General compatibility after intravenous injection in rats (7 days observation); type: in vivo; conditions: intravenously, meglumine salt in water, probit analysis
# Protocol: (§1) Table I presents a comparison of the conventional contrast media iothalamic acid (E) and diatrizoic acid (F) with 5-Carbamoyl-3-N-methylcarbamoyl-2,4,6-triiodobenzoic acid (D) of this invention, in terms of neural compatibility after intracerebral or intracisternal administration, as well as their general compatibility.
# (§2) The compounds are administered, as meglumine salts dissolved in water, to 10 rats each in varying doses. After intracerebral and intracisternal injection, the animals are observed for 24 hours; the ED50 is denoted as the dose causing toxic effects (strong behavioral anomalies and disturbances in motor coordination, convulsions, or death) in 50% of the animals. After intravenous injection, the observation time was 7 days. ED50 and LD50 were calculated by probit analysis.
# Iodine content of acid = type: physicochemical; conditions: of the free acid
# Rat [2] = assay: Neural compatibility after intracisternal injection in rats (24 h observation; ED50 = toxic effects in 50% of the animals); type: in vivo; conditions: intracisternally, meglumine salt in water, probit analysis
# Protocol: as §1, §2
# Rat [3] = assay: Neural compatibility after intracerebral injection in rats (24 h observation; ED50 = toxic effects in 50% of the animals); type: in vivo; conditions: intracerebrally, meglumine salt in water, probit analysis
# Protocol: as §1, §2
SMILES,LD50 (Rat [1]) [g I/kg],Iodine content of acid (Iodine content of acid) [%],"ED50 (strong behavioral anomalies, disturbances in motor coordination, convulsions, or death) (Rat [2]) [mg I/kg]",LD50 (Rat [2]) [mg I/kg],"ED50 (strong behavioral anomalies, disturbances in motor coordination, convulsions, or death) (Rat [3]) [mg I/kg]",LD50 (Rat [3]) [mg I/kg]
"CNC(=O)c1c(I)c(C(N)=O)c(I)c(C(=O)O)c1I [D, 5-Carbamoyl-3-N-methylcarbamoyl-2,4,6-triiodobenzoic acid]",8.7,63.5,13.2,65,42,66
"CNC(=O)c1c(I)c(NC(C)=O)c(I)c(C(=O)O)c1I [E, iothalamic acid]",7.4,62.1,10.6,58,36,52
"CC(=O)Nc1c(I)c(NC(C)=O)c(I)c(C(=O)O)c1I [F, diatrizoic acid]",7.3,62.1,3.0,–,12,–
